# Data reported in article PMC6105598, “Targeting protein-protein interactions for therapeutic discovery via FRET-based high-throughput screening in living cells” (Scientific Reports, 2018).
# “And” between values parts separate entries of the source, which are not always exact repeats. Equal values may be shown once.
# What was measured:
# [1] = biological target: SERCA2a-PLB complex (GFP-SERCA2a / RFP-PLB in HEK293 cells) (Homo sapiens, UniProt P16615+P26678, C36A/C41F/C46A); assay: SERCA2a-PLB TR-FRET (fluorescence lifetime) biosensor assay in living cells; format: cell-based; set-up: expressed in transfected cells; host or cells: HEK293; settings: for ΔFLT: compound incubation for 20 min, uncertainty (1 S.D.) 11 ps; for EC50: concentration-response 0.01-100 µM compound, live HEK293 cells
# Sequence of SERCA2a-PLB complex (GFP-SERCA2a / RFP-PLB in HEK293 cells) (P16615 1-997 isoform P16615-2, stated change not applied): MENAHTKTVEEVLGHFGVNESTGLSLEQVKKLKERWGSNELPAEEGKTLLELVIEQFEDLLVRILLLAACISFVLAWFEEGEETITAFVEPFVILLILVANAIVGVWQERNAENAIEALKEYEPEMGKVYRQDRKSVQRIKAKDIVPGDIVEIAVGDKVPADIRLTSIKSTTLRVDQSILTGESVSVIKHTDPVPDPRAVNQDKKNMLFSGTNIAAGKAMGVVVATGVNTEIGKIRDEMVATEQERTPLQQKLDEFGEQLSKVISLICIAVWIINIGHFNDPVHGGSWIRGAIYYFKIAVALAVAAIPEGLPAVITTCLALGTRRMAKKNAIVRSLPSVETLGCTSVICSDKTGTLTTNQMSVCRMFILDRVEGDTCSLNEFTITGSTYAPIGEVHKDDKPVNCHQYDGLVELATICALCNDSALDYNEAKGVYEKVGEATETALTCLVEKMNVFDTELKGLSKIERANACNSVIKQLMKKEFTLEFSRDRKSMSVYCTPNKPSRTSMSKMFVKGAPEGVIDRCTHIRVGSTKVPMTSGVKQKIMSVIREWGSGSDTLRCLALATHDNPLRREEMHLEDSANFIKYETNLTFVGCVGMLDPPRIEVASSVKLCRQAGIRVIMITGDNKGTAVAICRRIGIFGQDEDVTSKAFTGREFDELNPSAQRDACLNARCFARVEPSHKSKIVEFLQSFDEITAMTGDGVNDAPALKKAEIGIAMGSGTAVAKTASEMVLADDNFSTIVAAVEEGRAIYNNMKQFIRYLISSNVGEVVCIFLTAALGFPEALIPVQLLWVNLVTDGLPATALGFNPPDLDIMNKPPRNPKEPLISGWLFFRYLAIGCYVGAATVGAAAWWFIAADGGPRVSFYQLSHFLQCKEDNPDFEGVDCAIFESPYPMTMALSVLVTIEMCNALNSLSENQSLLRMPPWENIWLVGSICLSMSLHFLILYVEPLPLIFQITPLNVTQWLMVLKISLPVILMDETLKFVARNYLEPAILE
# Sequence of SERCA2a-PLB complex (GFP-SERCA2a / RFP-PLB in HEK293 cells) (P26678 whole entry C36A/C41F/C46A): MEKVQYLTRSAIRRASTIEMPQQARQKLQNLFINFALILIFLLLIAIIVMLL
# [2] = biological target: T1, cardiac SR (SERCA2a + PLB) (Sus scrofa, UniProt P11607); assay: Ca-ATPase activity of cardiac SR (CSR), NADH-linked enzyme-coupled assay; format: biochemical, pig; settings: for Vmax @ 30 µM / ΔVmax @ 30 µM / EC50: CSR; for Vmax @ 30 µM / ΔVmax @ 30 µM: 30 µM compound; for ΔVmax @ 30 µM: relative to DMSO control; for EC50: read-out: EC50 Vmax
# T1 construct: Cardiac SR membrane vesicles were isolated from ventricular myocardium obtained from fresh pig hearts; from tissue; host or cells: pig ventricular myocardium, SR membrane vesicles
# T1 sequence (P11607 1-997 isoform P11607-2): as the sequence (P16615 1-997 isoform P16615-2, stated change not applied) above, with R371K, N403K, S538P, L570M, H576N, D667E, A713S, S865T, I889V, V963L counted along it
# T1 sequence (P61013 whole entry partner): as the sequence (P26678 whole entry C36A/C41F/C46A) above, with E2D, K27N, A36C, F41C, A46C counted along it
# Description: To characterize the relationship between the structural readout (FRET) and the functional effects, in vitro Ca-ATPase assays were performed on cardiac SR (which contains both SERCA2a and PLB). […] To further examine the functional effects of Hit compounds, Ca-ATPase assays were performed on both skeletal SR (SERCA1a only) and cardiac SR (SERCA2a + PLB) at a series of Ca concentrations ranging from pCa 5 to 8.
# (§1) Skeletal muscle SR membrane vesicles were isolated from longissimus dorsi obtained from New Zealand white rabbits, as previously described. Cardiac SR membrane vesicles were isolated from ventricular myocardium obtained from fresh pig hearts. All experimental protocols were reviewed and approved by University of Minnesota’s Institutional Animal Care and Use Committee, an Association for Assessment and Accreditation of Laboratory Animal Care institution.
# (§2) An enzyme-coupled, NADH-linked ATPase assay was used to measure SERCA ATPase activity in 96-well microplates. Each well contained 0.8 μg (skeletal) or 2 μg (cardiac) of SR vesicles adjusted for the different SERCA contents of skeletal and cardiac SR, 50 mM MOPS (pH 7.0), 100 mM KCl, 5 mM MgCl2, 1 mM EGTA, 0.2 mM NADH, 1 mM phosphoenol pyruvate, 10 IU/mL of pyruvate kinase, 10 IU/mL of lactate dehydrogenase, 3.5 μg/mL of the Ca ionophore A23187, and CaCl2 added to set free [Ca] to the desired values. The assay was started upon the addition of ATP at a final concentration of 5 mM and read in a SpectraMax Plus microplate spectrophotometer rom Molecular Devices (Sunnyvale, CA).
# [3] = biological target: T2, skeletal SR (SERCA1a only) (Oryctolagus cuniculus, UniProt P04191); assay: Ca-ATPase activity of skeletal SR (SSR), NADH-linked enzyme-coupled assay; format: biochemical, rabbit; settings: for EC50 / Vmax @ 30 µM / ΔVmax @ 30 µM / percent change in Vmax vs DMSO control at 30 µM: SSR; for Vmax @ 30 µM / ΔVmax @ 30 µM / percent change in Vmax vs DMSO control at 30 µM: 30 µM compound; for ΔVmax @ 30 µM / percent change in Vmax vs DMSO control at 30 µM: relative to DMSO control; for percent change in Vmax vs DMSO control at 30 µM: read-out: ΔVmax @ 30 µM
# T2 construct: Skeletal muscle SR membrane vesicles were isolated from longissimus dorsi obtained from New Zealand white rabbits; from tissue; host or cells: rabbit longissimus dorsi skeletal muscle, SR membrane vesicles
# T2 sequence (P04191 1-994 isoform P04191-2): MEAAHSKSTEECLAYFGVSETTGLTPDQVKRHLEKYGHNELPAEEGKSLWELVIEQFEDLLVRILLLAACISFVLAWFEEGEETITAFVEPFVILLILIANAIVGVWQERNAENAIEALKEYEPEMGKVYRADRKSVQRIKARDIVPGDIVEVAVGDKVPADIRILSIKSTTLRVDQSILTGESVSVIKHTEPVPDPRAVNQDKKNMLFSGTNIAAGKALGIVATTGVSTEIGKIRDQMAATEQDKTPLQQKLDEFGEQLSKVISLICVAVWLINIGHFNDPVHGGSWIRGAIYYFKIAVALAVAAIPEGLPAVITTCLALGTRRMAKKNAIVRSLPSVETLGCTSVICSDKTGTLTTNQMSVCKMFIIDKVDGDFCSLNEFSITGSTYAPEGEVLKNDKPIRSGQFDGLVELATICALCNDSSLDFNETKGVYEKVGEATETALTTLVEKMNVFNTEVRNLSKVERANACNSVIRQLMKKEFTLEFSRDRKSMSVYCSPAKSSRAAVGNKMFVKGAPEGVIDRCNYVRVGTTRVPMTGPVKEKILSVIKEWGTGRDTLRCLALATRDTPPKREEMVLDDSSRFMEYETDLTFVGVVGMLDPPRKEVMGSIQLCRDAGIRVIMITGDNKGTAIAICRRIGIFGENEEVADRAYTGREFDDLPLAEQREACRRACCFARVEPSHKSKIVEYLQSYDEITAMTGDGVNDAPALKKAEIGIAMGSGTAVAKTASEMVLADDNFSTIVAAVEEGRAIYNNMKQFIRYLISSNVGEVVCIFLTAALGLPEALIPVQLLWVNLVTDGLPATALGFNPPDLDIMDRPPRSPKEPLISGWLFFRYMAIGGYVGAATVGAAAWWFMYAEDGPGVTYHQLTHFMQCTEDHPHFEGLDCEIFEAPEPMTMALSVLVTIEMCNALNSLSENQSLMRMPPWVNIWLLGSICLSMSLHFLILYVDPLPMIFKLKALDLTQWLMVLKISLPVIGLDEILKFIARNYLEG
# Description: To further examine the functional effects of Hit compounds, Ca-ATPase assays were performed on both skeletal SR (SERCA1a only) and cardiac SR (SERCA2a + PLB) at a series of Ca concentrations ranging from pCa 5 to 8.
# as §1, §2
SMILES,ΔFLT ([1]; final concentration 10 µM),ΔFLT ([1]; final concentration 100 µM),EC50 [1],Vmax @ 30 µM [2],ΔVmax @ 30 µM [2],EC50 [2],EC50 [3],Vmax @ 30 µM [3],ΔVmax @ 30 µM [3],direction of FRET change of the SERCA2a-PLB biosensor ([1]; concentration-response 0.01-100 µM),increase of Vmax ([2]; cardiac SR),percent change in Vmax vs DMSO control at 30 µM [3],increase of Vmax ([3]; skeletal SR)
CCCCCCCCCCCCCCCC(=O)OC(CC(=O)O)C[N+](C)(C)C.[Cl-] (racemic) [Palmitoyl-DL-carnitine chloride],50 ps,189 ps,24.9 µM,0.22 i.u.,-67.1%,16.1 µM,12.2 µM,0.57 i.u.,-78.1%,–,–,–,–
CCc1ccc(/C=C2/SC(=S)NC2=O)cc1 [10058-F4],17 ps,-11 ps,–,0.63 i.u.,-7.5%,–,–,2.63 i.u.,0.5%,–,–,–,–
CC(C)(C)c1ccc(/C=C/C(=O)Nc2ccc3c(c2)OCCO3)cc1 [AMG9810],6 ps,-1 ps,–,0.68 i.u.,0.1%,–,–,2.62 i.u.,0.1%,–,–,–,–
CCCCN(CC)c1nc(C)nc2c1c(C)cn2-c1c(C)cc(C)cc1C [CP 154526],48 ps,185 ps,9.3 µM,0.91 i.u.,34.4%,1 µM,2.5 µM and 2.47 µM,3.40 i.u.,–,decrease in FRET,34%,35%,35%
CN1CCC[C@@H]1Cc1c[nH]c2ccc(Nc3ncccc3[N+](=O)[O-])cc12 [CP-135807],-70 ps,-390 ps,> 100 µM,0.65 i.u.,-3.8%,–,–,2.67 i.u.,2.1%,–,–,–,–
Clc1ccc(C(c2ccc(Cl)cc2)n2cc[n+](CC(OCc3ccc(Cl)cc3Cl)c3ccc(Cl)cc3Cl)c2)cc1 (centres unmarked) [Calmidazolium],45 ps,-192 ps,26.3 µM,0.08 i.u.,-88.7%,15.9 µM,7.43 µM,0.01 i.u.,–,–,–,-99.5%,–
CCOc1nc2cccc(C(=O)OC(C)OC(=O)OC3CCCCC3)c2n1Cc1ccc(-c2ccccc2-c2nnn[nH]2)cc1 (centres unmarked) [Candesartan cilexetil],70 ps,181 ps,20.1 µM,0.17 i.u.,-75.3%,11.7 µM,7.42 µM,0.41 i.u.,–,–,–,-84.5%,–
CNC(=O)c1cc2c(cn1)[nH]c1ccccc12 [FG7142],4 ps,10 ps,–,0.67 i.u.,-0.7%,–,–,2.63 i.u.,0.5%,–,–,–,–
COC(=O)c1c(C)[nH]c(C)c1C(=O)c1ccccc1Cc1ccccc1 [FPL 64176],19 ps,47 ps,> 100 µM,0.52 i.u.,-23.0%,–,–,2.64 i.u.,0.7%,–,–,–,–
